The values that follow come from patent US8975249B2, “Heterocyclic compounds and uses thereof” (Celgene Avilomics Research, Inc., priority 2010, dated 2015).

Read-outs that look alike come from different tables or passages of the source.

Assay [1] has as its target EGFR (WT) (Homo sapiens (Human), UniProt P00533). As to the kind of experiment: Omnia biochemical assay, EGFR-WT active enzyme. The conditions noted are these: [EGFR-WT]=5 nM, [ATP]=15 uM, 30 min pre-incubation. As to the method:
Kinase reactions were started with the addition of 45 μL of the ATP/Tyr-Sox peptide substrate mix and monitored every 71 seconds for 60 minutes at λex360/λem485 in a Synergy^4 plate reader from BioTek (Winooski, Vt.).
The compound numbers correspond to the compound numbers in Table 1.

The subject of assay [2] is A431 cells (WT EGFR). Put plainly: Cell proliferation (CellTiter Glo), A431 cells.
Description: (§7) Cells were plated in Growth Media supplemented with 5% FBS and 1% P/S at a density of 3,000 cells per well in 96 well tissue culture plates (Corning). […] Growth inhibition (GI50) values were determined by Graph Pad Prism.
Assay [3] has as its system H1975 cells (EGFR L858R/T790M). As to the kind of experiment: Cell proliferation (CellTiter Glo), H1975 cells. On the technique in general: Cellular ATP, detected with luciferase, serves as a proxy for viable cell number.
Description: as §7
Assay [4] deals with HCC827 cells (EGFR delE746-A750). Put plainly: Cell proliferation (CellTiter Glo), HCC827 cells.
Description: as §7
The target of assay [5] is WT EGFR (A431 cells) (Homo sapiens (Human), UniProt P00533). Put plainly: Phospho-EGFR signaling immunoblot in A431 cells (WT EGFR). Format: cell-based. The conditions noted are these: 1 hr treatment, EGF stimulated, phospho-EGFR (Y1068). Here is the method: (§1) A431 human epidermoid carcinoma, H1975 human NSCLC and HCC827 human NSCLC adenocarcinoma cells were obtained from the American Type Culture Center (Manassas, Va.). A431 cells were grown in DMEM (Invitrogen, Carlsbad, Calif.) supplemented with 10% FBS (HyClone, South Logan, Utah) and 1% Penicillin-Streptomycin (P/S, Lonza, Walkersville, Md.).
(§2) All primary antibodies were obtained from Cell Signaling (Danvers, Mass.) and used at 1:1000. Secondary antibodies were used at 1:10,000. Goat anti-mouse IgG IRDye 800CW antibody was obtained from LiCor Biosciences (Lincoln, Nebr.) and goat anti-rabbit IgG Alexa Fluor 680 was obtained from Invitrogen.
(§3) Cells were grown in 12-well plates (Corning, Coring, N.Y.) to 90% confluence and then incubated in low-serum (0.1% FBS) media for 16-18 hr. […] A431 cells were then stimulated with 50 ng/ml EGF (Peprotech, Rocky Hill, N.J.) for 15 min. After treatment, cell monolayers were washed with cold PBS (Invitrogen) and immediately lysed by scrapping into 60 uL cold Cell Extraction Buffer (Invitrogen) supplemented with Complete Protease inhibitors (Roche, Indianapolis, Ind.) and PhosphoSTOP (Roche) phosphatase inhibitors.
(§4) Phospho-protein signals were quantitated using Odyssey Infrared Imaging (Li-Cor Biosciences).
(§5) To assess phosphor-EGFR signaling, blots were probed with rabbit anti-Phospho-EGFR (Y1068) and mouse total anti-EGFR antibodies. Phospho-EGFR signal was normalized to total EGFR expression for each sample. […] Normalized data was fitted using a sigmoidal curve analysis program (Graph Pad Prism version 5) with variable Hill slope to determine the EC50 values.
(§6) The compound numbers recited in Table 4 correspond to the compound numbers in Table 1.

Assay [6] has as its target EGFR double mutation L858R/T790M (H1975 cells) (Homo sapiens (Human), UniProt P00533, L858R/T790M). Put plainly: Phospho-EGFR signaling immunoblot in H1975 cells. The format is cell-based. Here is the method:
as §1, §2, §3, §4, §5, §6
For orientation: Immunoblotting shows a protein as a band on a membrane.

For assay [7], the target named is EGFR Deletion/T790M Mutation (H1975 cells) (Homo sapiens (Human), UniProt P00533, L858R/T790M). As to the kind of experiment: Washout experiment in H1975 cells (pEGFR after compound removal). Format: cell-based. The conditions noted are these: 500 nM for 1 hr, at 24 h after compound removal. As to the method: Washout Experiment in H1975 Cells Containing EGFR Deletion/T790M Mutation
Cells were plated in Growth Media supplemented with 10% FBS and 1% P/S at a density of 2.0×10^5 cells per well in 12 well tissue culture plates. Cells were allowed to settle down for 4 hrs and then maintained in low-serum (0.1% FBS) media overnight.
The following morning the media was removed and the cells were treated with 500 nM test compound in low-serum media for 1 hr. The cells were washed free of compound 2× with PBS (Invitrogen). One set of cells were immediately lysed as indicated above as the 0 hr time point. The remaining cells were incubated with complete RPMI-1640 growth media (10% FBS) for 1, 3, 6 and 24 hr. For the first 1 hr, cells were washed 2× with PBS every 30 min. DMSO (0.5%) controls were collected at the 0, 3, 6 and 24 hr time points.

Assay [8] concerns H1975 tumor. As to the kind of experiment: H1975 tumor in vivo study. The conditions noted are these: female nu/nu mice, H1975 subcutaneous, intraperitoneal 25 mg/kg daily for 21 days, determined at 15 days. As to the method:
H1975 Tumor In Vivo Study
Female nu/nu mice were implanted with 1×10^7 H1975 tumor cells in 50% Matrigel subcutaneously (0.2 ml injection volume) in the flank. Tumor measurements were recorded three times per week. Tumors were pair matched when they reached an average size of 100-150 mg. Group size was 10 mice. Test compound was administered intraperitoneal, 25 mg/kg daily for 21 days. % Tumor inhibition values were determined at 15 days, the time at which the control group reached a maximum tumor volume. Tumor volume was followed until tumors reached 1500 mm^3 or 60 days.

Where [9] appears, read: proliferation GI50 WT EGFR / H1975.
The mark [10] stands for this setting: proliferation GI50 WT EGFR / HCC827.

In general, IC50 refers to the concentration needed to halve the response being measured. What is called GI50 is the concentration giving 50% growth inhibition. As for `C=CC(=O)Nc1cccc(Oc2nc(Nc3ccc(N4CCN(C(C)=O)CC4)cc3OC)ncc2C(F)(F)F)c1` [Compound I-10, N-(3-(2-(4-(4-acetylpiperazin-1-yl)-2-methoxyphenylamino)-5-(trifluoromethyl)pyrimidin-4-yloxy)phenyl)acrylamide], the IC50 in assay [1] fell in the range of 1 to 10 nM. Moreover, the 50% growth inhibitory concentration (GI50) in assay [2] (Homo sapiens, A-431, 72 h, read-out: WT EGFR GI50 (nM)) was greater than 1000 nM; in assay [3] (Homo sapiens, NCI-H1975, 72 h, read-out: H1975 GI50 (nM)), 500 to 1000 nM; in assay [4] (Homo sapiens, HCC827, 72 h, read-out: HCC827 GI50 (nM)), 100 to 500 nM. In addition, in assay [3], the “Ratio WT/mutant (H1975)” value is listed as greater than 1. In addition, the “Ratio WT/mutant (HCC827)” value in assay [4] is greater than 20.

By EC50 is commonly meant the concentration giving half of the maximal effect. Low readings indicate a more potent agent, high ones a less potent agent. Consider `C=CC(=O)Nc1cccc(Nc2nc(Nc3ccc(N4CCOCC4)cc3OC)ncc2C(F)(F)F)c1` [Compound I-2, N-(3-(2-(2-methoxy-4-morpholinophenylamino)-5-(trifluoromethyl)pyrimidin-4-ylamino)phenyl)acrylamide], for which, in assay [1], the IC50 was 10 to 30 nM. Moreover, the EC50 in assay [5] is greater than 1000 nM; in assay [6] (H1975 cells, 1 hr treatment, phospho-EGFR (Y1068)), 10 to 100 nM. Further, the “Ratio WT/mutant (H1975)” value is listed as greater than 50 in assay [6] (signaling EC50 WT EGFR / H1975) and greater than 20 in assay [3] (setting [9]). The “activity restored by new protein synthesis” value in assay [7] is reported as 40-60%. In assay [8], the “% Tumor inhibition” value was greater than 66%. Further, the “Ratio WT/mutant (HCC827)” value in assay [4] (setting [10]) is reported as greater than 40.

`C=CC(=O)Nc1cccc(Nc2nc(Nc3ccc(N4CCN(C(C)=O)CC4)cc3OC)ncc2C(F)(F)F)c1` [Compound I-4, N-(3-(2-(4-(4-acetylpiperazin-1-yl)-2-methoxyphenylamino)-5-(trifluoromethyl)pyrimidin-4-ylamino)phenyl)acrylamide]: the “activity restored by new protein synthesis” value in assay [7] was 40-60%. In addition, the “% Tumor inhibition” value in assay [8] is greater than 66%.

Consider “N-(3-(5-chloro-2-(2-methoxy-4-morpholinophenylamino)pyrimidin-4-ylamino)phenyl)acrylamide [Compound I-15]”, for which, in assay [1], the IC50 lay in the range of 30 to 100 nM. Also, the 50% growth inhibitory concentration (GI50) is greater than 1000 nM in assay [2] (read-out: WT EGFR GI50, A431 cells, 72 hr); 500 to 1000 nM in assay [3] (read-out: H1975 GI50, H1975 cells, 72 hr); 100 to 500 nM in assay [4] (read-out: HCC827 GI50, HCC827 cells, 72 hr). Further, the “Ratio WT/mutant (H1975)” value in assay [3] (setting [9]) was greater than 1. In addition, the “Ratio WT/mutant (HCC827)” value in assay [4] (setting [10]) is on record as greater than 10.
